Experimental data as given in patent US20240117385A1, “ENZYMES OF LUCIFERIN BIOSYNTHESIS AND USE THEREOF” (LIGHT BIO, INC., priority 2018, published 2024).

Experiments:
Danio rerio larvae = experiment: Bioluminescence of transgenic Danio rerio larvae after hispidin injection; assay type: in vivo; settings: hispidin solution intravenously injected
From the text: Transgenic fish Danio redo, comprising gene of Neonothopanus nambi hispidin hydroxylase were created according to the technique described in [Hisano et al., Sci Rep., 2015, 5:8841]. The technique includes expression of guide RNA and Cas9 nuclease for making a breakpoint in the region homologous to the guide RNA sequence. For the purpose of development of transgenic animals there were ordered synthetic DNA fragments comprising guide RNA sequences from pX330 plasmid, Addgene #42230 and mRNA of Cas9 nuclease under control of bacteriophage polymerase T7 promoter. The obtained fragments were used for transcription in vitro by means of reagents from MAXIscript T7 kit (Life Technologies, USA), and synthesized RNA was purified by means of DNA isolation kit (Evrogen, Russia).
Coding sequence of Neonothopanus nambi hispidin hydroxylase floxed by 50-nucleotide sequences from krtt1c19e Danio rerio gene, described in [Hisano et al., Sci Rep., 2015, 5:8841], was obtained synthetically and cloned into pEGFP/C1 plasmid base comprising pUC origin and kanamycin resistance cassette.
Hispidin solution was intravenously injected into Danio rerio larvae for recording bioluminescent signal according to the technique described in [Cosentino et al., J Vis Exp. 2010; (42): 2079]. Bioluminescence was recorded by means of IVIS Spectrum In Vivo Imaging System (Perkin Elmer). […]

[1] = test system: hispidin hydroxylase and luciferase fusion protein; experiment: Bioluminescence of HEK293T cells expressing hispidin hydroxylase and luciferase fusion protein; assay type: cell-based, Neonothopanus nambi; settings: 24 hours after transfection, 1 million of cells in 0.5 ml PBS; hispidin 10 μg per 1 million of cells
From the text: Humanized DNA sequences coding hispidin-hydroxylase and luciferase of Neonothopanus nambi, obtained according to Example 2, were operatively cross-linked to each other by flexible short peptide linker with amino acid sequence GGSGGSGGS (SEQ ID NOs:115). Nucleotide and amino acid sequences of the obtained fused protein are shown in SEQ ID NO 101 and 102. Nucleic acid coding fused protein was cloned into pEGFP-N1 vector (Clontech, USA) instead of EGFP gene under Cytomegaloviral promoter control. The obtained structure was transfected into HEK293T cells. Analogous vectors, comprising individual genes of hispidin hydroxylase and luciferase, were also co-transfected. Transfection was performed by transfection agent FuGENE HD (Promega, USA) according to the manufacturer's protocol. 24 hours after transfection 1 million of cells were resuspended in 0.5 ml of PBS, and luminescence without adding hispidin and with addition of hispidin (10 μg per 1 million of cells) was recorded by luminometer.

[2] = test system: Neonothopanus nambi hispidin hydroxylase and luciferase; experiment: Bioluminescence reaction of biosynthetic hispidin; assay type: biochemical; settings: hispidin purified from fermenter medium by HPLC
Method: The obtained E. coli strain was used for producing hispidin. At the first step the bacteria were incubated in five 50 ml plastic tubes in LB medium within 10 hours at 200 rpm fluctuation at 37° C. 250 ml of the obtained culture were added to 3.3 litres of fermentation medium into a fermenter Biostat B5 (Braun, Germany) so that initial culture optical density at 600 nm was about 0.35. Fermentation medium comprised 10 g/l of peptone, 5 g/l of caffeic acid, 5 g/l of yeast extract, 10 g/l of NaCl, 25 g/l of glucose, 15 g/l of (NH4)2SO4, 2 g/l of KH2PO4, 2 g/l of MgSO4·7 H2O, 14.7 mg/l of CaCl2), 0.1 mg/l of thiamine, 1.8 mg/l and 0.1% of the solution composed of: EDTA 8 mg/l, CoCl2·6 H2O 2.5 mg/l, MnCl2·4H2O 15 mg/l, CuCl2·2H2O 1.5 mg/l, H3BO3 3 mg/l, Na2MoO4·2H2O 2.5 mg/l, Zn(CH3COO)2·2H2O 13 mg/l, iron (III) citrate 100 mg/l, thiamine hydrochloride 4.5 mg/l. Fermentation was carried out at 37° C., with 3 l/min aeration and 200 rpm mixing. After 25 hours of cultivation arabinose was added to the culture up to final concentration of 0.1 mM. pH was automatically controlled by adding of NH4OH, […] pH to 7.0. […]

activity in bioluminescence reaction [2]: active in bioluminescence reaction
Structure (SMILES): O=c1cc(O)cc(/C=C/c2ccc(O)c(O)c2)o1 [hispidin, (E)-6-(3,4-dihydroxystyryl)-4-hydroxy-2H-pyran-2-one]
bioluminescence intensity exceeding the signal from wild-type fish (Danio rerio larvae): minimum by two orders of magnitude
cell luminescence on addition [1]: caused cell luminescence in green spectrum
